# Test results taken from patent US20240277658A1, “NLRP3 ACTIVATORS FOR USE IN THE TREATMENT OF INFECTIOUS DISEASES OR CANCER BY ACTIVATING NLRP3 INFLAMMASOME” (ALBERT-LUDWIGS-UNIVERSITÄT FREIBURG, priority 2020, published 2024).
# Where “and” joins values, the source holds several entries; their conditions need not be identical. Equal entries are not always repeated. Where two headings read alike, the source gives them in different places.
# Assays:
# [1] = tested on: BMDCs; experiment: LDH release (lytic cell death, pyroptosis) from LPS-primed BMDCs; format: cell-based, mouse; details: for Average (% positive control): LDH release; for cytotoxicity at 50 µM / cytotoxicity at 20 µM / cytotoxicity at 40 µM / cytotoxicity at 80 µM / cytotoxicity at 18.75 µM / cytotoxicity at 37.5 µM / cytotoxicity at 75 µM: Mus musculus, BMDC; for cytotoxicity at 50 µM: LPS-primed BMDCs
# Summary of the method: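 LDH released into medium, detected colorimetrically, served as the pyroptosis read-out in triplicate. LPS-primed (50 ng ml^−1, 3 h) murine bone marrow-derived dendritic cells received test compounds, typically 50 μM, or nigericin (5 μM), R837 or CL097 (100 μM) for 3 hours.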
# [2] = molecular target: T1, NLRP3 inflammasome (Mus musculus, UniProt Q8R4B8); experiment: IL-1β release from LPS-primed BMDCs (ELISA) as readout of NLRP3 inflammasome activation; format: cell-based
# T1 construct: endogenous in cells; host or cells: primary mouse bone marrow-derived dendritic cells (BMDCs), LPS-primed
# Summary of the method: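 NLRP3 inflammasome activation was read out as IL-1β released into the supernatant, measured by ELISA. Murine BMDCs were primed with LPS (50 ng ml^−1, 3 hours), then incubated with compounds for 3 hours, with each condition run in three technical replicates. Nigericin at 5 μM acted as the positive control activator, and IL-1β release was also expressed as a percentage of that control.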
# [3] = compound 50 μM, positive control nigericin 5 μM
# [4] = compound 50 μM, read-out: Average LDH release (% of max.)
# [5] = single replicates, compound 50 μM, read-out: LDH release (% of max.)
# [6] = IL-1β release, compound 50 μM, positive control nigericin 5 μM
# [7] = compound 50 μM, LPS-primed BMDCs
# [8] = single replicates, compound 50 μM, LPS-primed BMDCs
# T1 sequence (Q8R4B8 whole entry): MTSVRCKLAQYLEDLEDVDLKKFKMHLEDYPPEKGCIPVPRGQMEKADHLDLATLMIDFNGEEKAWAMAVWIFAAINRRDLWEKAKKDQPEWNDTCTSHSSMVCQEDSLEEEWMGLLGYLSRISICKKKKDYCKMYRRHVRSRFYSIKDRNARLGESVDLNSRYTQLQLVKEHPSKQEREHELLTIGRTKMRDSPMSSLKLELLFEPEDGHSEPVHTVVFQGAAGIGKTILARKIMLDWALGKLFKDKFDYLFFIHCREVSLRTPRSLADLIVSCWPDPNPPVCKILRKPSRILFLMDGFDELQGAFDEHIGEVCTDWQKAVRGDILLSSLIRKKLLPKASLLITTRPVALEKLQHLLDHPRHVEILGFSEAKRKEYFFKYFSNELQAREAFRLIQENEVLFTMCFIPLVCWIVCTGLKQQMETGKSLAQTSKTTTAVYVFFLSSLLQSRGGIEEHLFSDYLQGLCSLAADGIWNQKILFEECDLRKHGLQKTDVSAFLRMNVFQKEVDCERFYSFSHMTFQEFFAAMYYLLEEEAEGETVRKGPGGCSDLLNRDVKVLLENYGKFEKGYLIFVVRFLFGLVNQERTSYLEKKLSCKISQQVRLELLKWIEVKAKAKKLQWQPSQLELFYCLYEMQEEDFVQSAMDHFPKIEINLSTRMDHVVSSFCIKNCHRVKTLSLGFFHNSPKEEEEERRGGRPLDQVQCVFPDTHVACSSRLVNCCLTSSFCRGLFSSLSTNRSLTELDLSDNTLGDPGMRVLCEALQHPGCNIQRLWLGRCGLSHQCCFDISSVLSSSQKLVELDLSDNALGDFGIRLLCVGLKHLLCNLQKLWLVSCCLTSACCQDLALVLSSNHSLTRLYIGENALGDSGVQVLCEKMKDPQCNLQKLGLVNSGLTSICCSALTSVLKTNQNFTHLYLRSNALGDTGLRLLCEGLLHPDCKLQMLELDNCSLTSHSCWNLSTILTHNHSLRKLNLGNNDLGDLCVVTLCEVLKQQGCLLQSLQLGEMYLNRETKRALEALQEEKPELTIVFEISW
smiles,measurement,setting,value
"O=C(Nc1ccccc1)Nc1ccc(OC(F)(F)F)cc1 [L01.061, 1-phenyl-3-[4-(trifluoro-methoxy)phenyl]urea]",Average (% positive control),[1]; [3],19.349 % positive control
same,cytotoxicity at 50 µM,[1]; [4],14.2%
same,cytotoxicity at 50 µM,[1]; [5],15.9%
same,Average (% positive control),[2]; [6],6.360 % positive control
same,Average IL-1β,[2]; [7],0.456 ng/mL
same,IL-1β,[2]; [8],0.508 ng/mL and 0.439 ng/mL and 0.420 ng/mL
"O=C(Nc1ccccc1)Nc1cccc([N+](=O)[O-])c1 [L01.108, 3-(3-nitrophenyl)-1-phenylurea]",Average (% positive control),[1]; [3],14.362 % positive control
same,cytotoxicity at 50 µM,[1]; [4],10.5%
same,cytotoxicity at 50 µM,[1]; [5],10.9%
same,Average (% positive control),[2]; [6],0.973 % positive control
same,Average IL-1β,[2]; [7],0.070 ng/mL
same,IL-1β,[2]; [8],0.076 ng/mL and 0.061 ng/mL and 0.072 ng/mL
"N#Cc1ccc(NC(=O)Nc2ccc3ncccc3c2)cc1 [JB011, 1-(4-cyanophenyl)-3-(quinolin-6-yl)urea]",Average (% positive control),"[1]; 20 μM, positive control EN22 20 μM",21.883 % positive control
same,Average (% positive control),"[1]; 40 μM, positive control EN22 20 μM",24.799 % positive control
same,Average (% positive control),"[1]; 80 μM, positive control EN22 20 μM",31.296 % positive control
same,cytotoxicity at 20 µM,"[1]; 20 μM, individual replicate values, read-out: LDH release (% of max.)",11.5%
same,cytotoxicity at 20 µM,"[1]; 20 μM, read-out: Average LDH release (% of max.)",11.7%
same,cytotoxicity at 40 µM,"[1]; 40 μM, individual replicate values, read-out: LDH release (% of max.)",12.6%
same,cytotoxicity at 40 µM,"[1]; 40 μM, read-out: Average LDH release (% of max.)",13.2%
same,cytotoxicity at 80 µM,"[1]; 80 μM, individual replicate values, read-out: LDH release (% of max.)",16.4%
same,cytotoxicity at 80 µM,"[1]; 80 μM, read-out: Average LDH release (% of max.)",16.7%
same,Average IL-1β,[2]; 20 μM,0.576 ng/mL
same,IL-1β,"[2]; 20 μM, individual replicate values",0.562 ng/mL and 0.612 ng/mL and 0.553 ng/mL
same,Average IL-1β,[2]; 40 μM,0.604 ng/mL
same,IL-1β,"[2]; 40 μM, individual replicate values",0.538 ng/mL and 0.564 ng/mL and 0.711 ng/mL
same,Average IL-1β,[2]; 80 μM,0.752 ng/mL
same,IL-1β,"[2]; 80 μM, individual replicate values",0.912 ng/mL and 0.737 ng/mL and 0.607 ng/mL
same,Average (% positive control),"[2]; IL-1β, 20 μM, positive control EN22",29.413 % positive control
same,Average (% positive control),"[2]; IL-1β, 40 μM, positive control EN22",30.877 % positive control
same,Average (% positive control),"[2]; IL-1β, 80 μM, positive control EN22",38.413 % positive control
"O=C(Nc1ccccc1)Nc1cccc(NC(=O)c2ccoc2)c1 [L01.027, N-{3-[(phenylcarbamo-yl)amino]phenyl}furan-3-carboxamide]",Average (% positive control),[1]; [3],9.387 % positive control
same,cytotoxicity at 50 µM,[1]; [4],6.87%
same,cytotoxicity at 50 µM,[1]; [5],5.2%
same,Average (% positive control),[2]; [6],2.451 % positive control
same,Average IL-1β,[2]; [7],0.176 ng/mL
same,IL-1β,[2]; [8],0.149 ng/mL and 0.197 ng/mL and 0.181 ng/mL
"COc1ccc(NC(=O)Nc2ccc(-c3noc(CC4CCCN(Cc5cccc(F)c5C)C4)n3)cc2)cc1 (stereo not drawn) [PM07, 1-[4-(5-((1-(3-fluoro-2-methylbenzyl)piperidin-3-yl)methyl)-1,2,4-oxadiazol-3-yl)phenyl]-3-[(4-methoxy)phenyl] urea]",cytotoxicity at 18.75 µM,"[1]; section 1.4, 18.75 μM, read-out: Average LDH release (% of max.)",51%
same,cytotoxicity at 37.5 µM,"[1]; section 1.4, 37.5 μM, read-out: Average LDH release (% of max.)",69.3%
same,cytotoxicity at 75 µM,"[1]; section 1.4, 75 μM, read-out: Average LDH release (% of max.)",85.6%
same,cytotoxicity at 18.75 µM,"[1]; section 1.4, single replicates, 18.75 μM, read-out: LDH release (% of max.)",50.4%
same,cytotoxicity at 37.5 µM,"[1]; section 1.4, single replicates, 37.5 μM, read-out: LDH release (% of max.)",67.7%
same,cytotoxicity at 75 µM,"[1]; section 1.4, single replicates, 75 μM, read-out: LDH release (% of max.)",85.1%
same,Average (% positive control),"[1]; section 1.4, 18.75 μM, positive control EN22 18.75 μM",71.489 % positive control
same,Average (% positive control),"[1]; section 1.4, 37.5 μM, positive control EN22 18.75 μM",97.102 % positive control
same,Average (% positive control),"[1]; section 1.4, 75 μM, positive control EN22 18.75 μM",120.051 % positive control
same,Average IL-1β,[2]; 18.75 μM,1.335 ng/mL
same,IL-1β,"[2]; 18.75 μM, individual replicate values",1.117 ng/mL and 1.248 ng/mL and 1.641 ng/mL
same,Average IL-1β,[2]; 37.5 μM,1.594 ng/mL
same,IL-1β,"[2]; 37.5 μM, individual replicate values",1.916 ng/mL and 1.571 ng/mL and 1.295 ng/mL
same,Average IL-1β,[2]; 75 μM,1.217 ng/mL
same,IL-1β,"[2]; 75 μM, individual replicate values",1.202 ng/mL and 1.130 ng/mL and 1.320 ng/mL
same,Average (% positive control),"[2]; IL-1β, 18.75 μM, positive control EN22 18.75 μM",21.124 % positive control
same,Average (% positive control),"[2]; IL-1β, 37.5 μM, positive control EN22 18.75 μM",25.211 % positive control
same,Average (% positive control),"[2]; IL-1β, 75 μM, positive control EN22 18.75 μM",19.256 % positive control
"O=C(Nc1ccccc1)Nc1ccc(NC2CCOCC2)cc1 [L01.065, 1-{4-[(oxan-4-l)amino]-phenyl}-3-phenylurea]",Average (% positive control),[1]; [3],12.397 % positive control
same,cytotoxicity at 50 µM,[1]; [4],9.07%
same,cytotoxicity at 50 µM,[1]; [5],8.41%
same,Average (% positive control),[2]; [6],0.928 % positive control
same,Average IL-1β,[2]; [7],0.067 ng/mL
same,IL-1β,[2]; [8],0.052 ng/mL and 0.070 ng/mL and 0.077 ng/mL
